“And” between values parts separate entries of the source, which are not always exact repeats. Equal entries are not always repeated. Where two headings read alike, the source gives them in different places.
Columns and labels:
[1] = Example 21 crossover pharmacokinetics of mono-tosylate and di-tosylate tablets in fasted dogs; assay type: in vivo, beagle dogs; parameters: Plasma concentration of Compound I at 0.25 hours: unit: ng/mL; details: Example 21, fasted dogs, 200 mg tablet PO
Description: (§1) Pharmacokinetics parameters of formulations of Compound I and its salts in dogs were determined by orally administering a test formulation tablet at 200 mg of active (Compound I or salt) per dog.
(§2) Blood samples were taken at various times after administration, plasma prepared, and submitted to analysis for parent drug using a qualified LC-MS-MS assay. Pharmacokinetics parameters derived from the plasma analytical data were determined using non-compartmental analysis.
(§3) Pharmacokinetics of Compound I were determined in pentagastrin-pretreated male beagle dogs following a single oral (PO) administration at 200 mg/tablet per dog in a 2-phase crossover designed study, with a washout period of at least 7 days in between each phase. Five male, non-naive, purebred beagle dogs were used in each phase of the 2-phase crossover study. All dogs were pretreated with pentagastrin (6 μg/kg intramuscular administrations) approximately 30 minutes before test article administration.
Two tablet formulations (mono-tosylate and di-tosylate, as described above) of test article were assessed. Animals were fasted overnight prior to PO dosing through approximately 4 hours post-dose. The tablet was administered orally, followed by approximately 10 mL of reverse osmosis water. Phase 1 animals were given tablets containing Compound I mono-tosylate, and phase 2 animals were given tablets containing Compound I di-tosylate salt. Blood samples were collected pre-dose and at 0.25, 0.5. 1. 2, 4, 8, 24, 36, and 48 hours after the oral dose. Plasma was harvested, and the concentration of Compound I in each plasma sample was determined by an LC/MS/MS assay. The assay lower limit of quantitation was 20 ng/mL for Compound I. Mean Compound I concentrations measured in plasma were used to construct semi-logarithmic plasma concentration-time curves (FIG. 1). Pharmacokinetic analysis was performed using non-compartmental methods.

[2] = Solubility in pure water at 25° C. with PXRD of solid residues; assay type: physicochemical
Description: Using a similar strategy as described above, these salts were prepared by evaporation from a solution of free base and acid in a solvent (e.g., methanol-dichloromethane 1:1, ethyl acetate-dichloromethane 1:2, isopropanol, and the like). If necessary, an amorphous salt produced in this way was crystallized by stirring the amorphous material in an appropriate solvent (e.g., ethyl acetate, acetonitrile, and the like).

[3] = Approximate solubility in MeOH/MTBE at room temperature; assay type: physicochemical; details: organic solvent or mixture
Description: The approximate solubility of mono-tosylate Type A was measured in MeOH/MTBE at room temperature. […] To achieve appropriate volumetric efficiency and yield, the starting concentration in MeOH was 250 mg/mL and the final ratio of the anti-solvent crystallization process in MeOH/MTBE (v/v) was 1:3.

[4] = Example 20 crossover pharmacokinetics of two oral tablet formulations in dogs under fed conditions; assay type: in vivo, beagle dogs; parameters: Plasma concentration of Compound I at 24 hours / Plasma concentration of Compound I at 36 hours / Plasma concentration of Compound I at 0.5 hours / Plasma concentration of Compound I at 1 hour / Plasma concentration of Compound I at 2 hours: unit: ng/mL; details: 200 mg tablet PO
Description: as §1, §2
as §3, with “mg/tablet/dog” for “mg/tablet per dog”, “study” for “designed study,”, “Six” for “Five”
Two tablet formulations (nanosuspension and mono-tosylate salt, as described above) of test article were assessed. Phase 1 animals were given tablets containing Compound I nanosuspension. Phase 2 animals were given tablets containing Compound I mono-tosylate salt. Animals in both phases were fasted overnight through approximately 4 hours postdose, and received a 100-mL volume of homogenized Food and Drug Administration (FDA) high fat diet by oral gavage at approximately 30 minutes prior to test article administration, followed by a 7 to 10-mL flush with water. Blood samples were collected pre-dose and at 0.25. 0.5, 1. 2. 4. 8, 24, 36, and 48 hours after the oral dose. Plasma was harvested, and the concentration of Compound I in each plasma sample was determined by an LC/MS/MS assay. The assay lower limit of quantitation was 20 ng/mL for Compound I.
Mean Compound I concentrations measured in plasma were used to construct semi-logarithmic plasma concentration-time curves (FIG. 14). Pharmacokinetic analysis was performed using non-compartmental methods.

[5] = Dissolution and precipitation in pH 6.5 phosphate buffer at 37° C. containing HPMC; assay type: physicochemical
Text: The inclusion of HPMC in the tablet of Example 16 was to maintain the supersaturation of Compound I API after its mono-tosylate salt dissolves. […]

[6] = individual subjects, LLOQ 20 ng/mL, mono-tosylate salt
[7] = individual subjects, mono-tosylate salt
[8] = Example 20, fed dogs (high fat diet), individual subjects, mono-tosylate salt
[9] = Example 20, fed dogs, individual subjects, LLOQ 20 ng/mL, mono-tosylate salt
[10] = male, beagle, dog, plasma, po, 200 mg, Example 20, fed dogs (high fat diet), mean

- Plasma concentration of Compound I at 48 hours ([1]; individual subjects, LLOQ 20 ng/mL): BLQ
- Plasma concentration of Compound I at 0.25 hours [1, 6]: 179 and 452 and 100 and 74.0 and 161
- Plasma concentration of Compound I at 0.5 hours [1, 6]: 1180 and 3040 and 1320 and 3170
- Plasma concentration of Compound I at 8 hours [1, 6]: 1140 and 3110 and 5060 and 5380 and 378
- Plasma concentration of Compound I at 24 hours [1, 6]: 95.5 and 4080 and 252 and 1050 and 25.7
- Plasma concentration of Compound I at 36 hours [1, 6]: BLQ (3×) and 897 and 74.4
- Plasma concentration of Compound I at 48 hours ([1]; mean, LLOQ 20 ng/mL): BLQ
- AUC(0-t) ([1]; male, beagle, dog, plasma, po, 200 mg, mean): 70200 ng·h/mL
- AUC ([1]; male, beagle, dog, plasma, po, 200 mg, mean, read-out: AUC0-rt): 70900 ng·h/mL
- Cmax ([1]; male, beagle, dog, plasma, po, 200 mg, mean, read-out: Cmax): 6480 ng/mL
- concentration at 0.25 h ([1]; male, beagle, dog, plasma, po, 200 mg/tablet per dog, mean, LLOQ 20 ng/mL, read-out: Plasma concentration of Compound I at 0.25 hours): 193 ng/mL
- concentration at 0.5 h ([1]; male, beagle, dog, plasma, po, 200 mg/tablet per dog, mean, LLOQ 20 ng/mL, read-out: Plasma concentration of Compound I at 0.5 hours): 1910 ng/mL
- concentration at 1 h ([1]; male, beagle, dog, plasma, po, 200 mg/tablet per dog, mean, LLOQ 20 ng/mL, read-out: Plasma concentration of Compound I at 1 hour): 4690 ng/mL
- concentration at 2 h ([1]; male, beagle, dog, plasma, po, 200 mg/tablet per dog, mean, LLOQ 20 ng/mL, read-out: Plasma concentration of Compound I at 2 hours): 6480 ng/mL
- concentration at 4 h ([1]; male, beagle, dog, plasma, po, 200 mg/tablet per dog, mean, LLOQ 20 ng/mL, read-out: Plasma concentration of Compound I at 4 hours): 5730 ng/mL
- concentration at 8 h ([1]; male, beagle, dog, plasma, po, 200 mg/tablet per dog, mean, LLOQ 20 ng/mL, read-out: Plasma concentration of Compound I at 8 hours): 3010 ng/mL
- concentration at 24 h ([1]; male, beagle, dog, plasma, po, 200 mg/tablet per dog, mean, LLOQ 20 ng/mL, read-out: Plasma concentration of Compound I at 24 hours): 1100 ng/mL
- concentration at 36 h ([1]; male, beagle, dog, plasma, po, 200 mg/tablet per dog, mean, LLOQ 20 ng/mL, read-out: Plasma concentration of Compound I at 36 hours): 486 ng/mL
- tmax ([1]; male, beagle, dog, plasma, mean, read-out: tmax): 2 h
- pH (24 hrs) ([2]; pH of solubility sample, pure water, 25° C., 24 hours): 1.53
- pH (1 hr) ([2]; pH of solubility sample, pure water, 25° C., one hour): 1.47
- S 24 hrs ([2]; pure water, 25° C., 24 hours equilibration): 1.24 mg/mL
- S 1 hr ([2]; pure water, 25° C., one hour): 2.54 mg/mL
- solubility at 24 h ([2]; water, 25 °C, water, thermodynamic from solid, Table 5: free base and crystalline salt forms): 1240 µg/mL
- solubility ([3]; MeOH/MTBE (v/v, 1:2), read-out: approximate solubility in MeOH/MTBE (v/v, 1:2)): 9300 to 18600 µg/mL
- solubility ([3]; MeOH/MTBE (v/v, 1:3), read-out: approximate solubility in MeOH/MTBE (v/v, 1:3)): < 5400 µg/mL
- solubility ([3]; methanol, read-out: approximate solubility in MeOH): 264000 to 348000 µg/mL
- Plasma concentration of Compound I at 48 hours ([4]; Example 20, fed dogs, individual subjects, LLOQ 20 ng/mL): BLQ
- Plasma concentration of Compound I at 0.25 hours [4, 9]: BLQ (4×) and 381 and 41.0
- Plasma concentration of Compound I at 48 hours ([4]; Example 20, fed dogs, mean, LLOQ 20 ng/mL): BLQ
- tmax ([4]; male, beagle, dog, plasma, po, 200 mg, Example 20, fed dogs (high fat diet), individual subjects): 4 h
- AUC(0-t) [4, 10]: 48800 ng·h/mL
- tmax [4, 10]: 3 h
- AUC ([4]; male, beagle, dog, plasma, po, 200 mg, Example 20, fed dogs (high fat diet), mean, read-out: AUC0-rt): 50900 ng·h/mL
- Cmax ([4]; male, beagle, dog, plasma, po, 200 mg, Example 20, fed dogs (high fat diet), mean, read-out: Cmax): 5430 ng/mL
- concentration at 0.25 h ([4]; male, beagle, dog, plasma, po, 200 mg/tablet/dog, Example 20, fed dogs, mean, LLOQ 20 ng/mL, read-out: Plasma concentration of Compound I at 0.25 hours): 70.3 ng/mL
- concentration at 0.5 h ([4]; male, beagle, dog, plasma, po, 200 mg/tablet/dog, Example 20, fed dogs, mean, LLOQ 20 ng/mL, read-out: Plasma concentration of Compound I at 0.5 hours): 717 ng/mL
- concentration at 1 h ([4]; male, beagle, dog, plasma, po, 200 mg/tablet/dog, Example 20, fed dogs, mean, LLOQ 20 ng/mL, read-out: Plasma concentration of Compound I at 1 hour): 2190 ng/mL
- concentration at 2 h ([4]; male, beagle, dog, plasma, po, 200 mg/tablet/dog, Example 20, fed dogs, mean, LLOQ 20 ng/mL, read-out: Plasma concentration of Compound I at 2 hours): 4580 ng/mL
- concentration at 4 h ([4]; male, beagle, dog, plasma, po, 200 mg/tablet/dog, Example 20, fed dogs, mean, LLOQ 20 ng/mL, read-out: Plasma concentration of Compound I at 4 hours): 4960 ng/mL
- concentration at 8 h ([4]; male, beagle, dog, plasma, po, 200 mg/tablet/dog, Example 20, fed dogs, mean, LLOQ 20 ng/mL, read-out: Plasma concentration of Compound I at 8 hours): 2460 ng/mL
- concentration at 24 h ([4]; male, beagle, dog, plasma, po, 200 mg/tablet/dog, Example 20, fed dogs, mean, LLOQ 20 ng/mL, read-out: Plasma concentration of Compound I at 24 hours): 847 ng/mL
- concentration at 36 h ([4]; male, beagle, dog, plasma, po, 200 mg/tablet/dog, Example 20, fed dogs, mean, LLOQ 20 ng/mL, read-out: Plasma concentration of Compound I at 36 hours): 79.7 ng/mL
- Compound I concentration maintained ([5]; HPMC 5 μg/mL): 160 µg/mL
- API concentration after dissolution ([5]; absence of HPMC, in 10 minutes): 80 µg/mL
Compound: Cc1ccc(S(=O)(=O)O)cc1.Cn1cc(-c2cn(-c3ccc(OC(F)(F)F)cc3)c(=O)c3ncn(C)c23)cn1 [mono-tosylate, 1-methyl-7-(1-methyl-1H-pyrazol-4-yl)-5-(4-(trifluoromethoxy)phenyl)-1,5-dihydro-4H-imidazo[4,5-c]pyridin-4-one, mono-tosylate salt]
- Plasma concentration of Compound I at 4 hours [1, 6]: 3550 and 5080 and 7990 and 10200 and 1850
- AUC0-last [1, 7]: 26900 ng·h/mL and 122000 ng·h/mL and 77900 ng·h/mL and 110000 ng·h/mL and 14000 ng·h/mL
- AUC0-rt [1, 7]: 27400 ng·h/mL and 123000 ng·h/mL and 79400 ng·h/mL and 110000 ng·h/mL and 14100 ng·h/mL
- Cmax [1, 7]: 3570 ng/mL and 5940 ng/mL and 9410 ng/mL and 10500 ng/mL and 2960 ng/mL
- AUC0-last [4, 8]: 59000 ng·h/mL and 75300 ng·h/mL and 68500 ng·h/mL and 26200 ng·h/mL and 16000 ng·h/mL and 47500 ng·h/mL
- AUC0-rt [4, 8]: 59700 ng·h/mL and 70100 ng·h/mL and 26200 ng·h/mL and 47700 ng·h/mL
- Cmax [4, 8]: 5340 ng/mL and 8590 ng/mL and 5160 ng/mL and 4930 ng/mL and 3490 ng/mL and 5080 ng/mL
- Plasma concentration of Compound I at 1 hour [4, 9]: 107 and 6070 and 2340 and 3330 and 1200 and 97.9
- Plasma concentration of Compound I at 2 hours [4, 9]: 2010 and 8270 and 5160 and 4930 and 2020 and 5080
- Plasma concentration of Compound I at 4 hours [4, 9]: 5340 and 8590 and 4020 and 3770 and 3490 and 4530
- Plasma concentration of Compound I at 8 hours [4, 9]: 3240 and 4900 and 1480 and 1020 and 1200 and 2920
- maintenance of Compound I supersaturation ([5]; HPMC 1 or 2 μg/mL): did not substantially maintain Compound I supersaturation
